We go through 16 compounds from PubChem BioAssay (NCI).

Experiment in all cases: NCI tumour cell line growth inhibition, 48 h
The subject of assay [1] is 786-0 renal.
Assay [2] has as its system CAKI-1 renal.
Assay [3] relates to HCT-116 colon.
The subject of assay [4] is HL-60(TB) leukemia.
In assay [5] the test system is HOP-62 NSCLC.
For assay [6], the system named is HOP-92 NSCLC.
Assay [7] relates to HT29 colon.
Assay [8] deals with MALME-3M melanoma.
In assay [9] the test system is MDA-MB-435.
Assay [10] deals with NCI-H226 lung.
Assay [11] relates to NCI-H23 lung.
The subject of assay [12] is OVCAR-5 ovarian.
Assay [13] has as its system OVCAR-8 ovarian.
For assay [14], the system named is RPMI-8226 leukemia.
Assay [15] has as its system SK-MEL-5 melanoma.
In assay [16] the test system is SK-OV-3 ovarian.
The test system of assay [17] is SNB-19 CNS.
The test system of assay [18] is T-47D breast.
The subject of assay [19] is UO-31 renal.
For assay [20], the system named is MCF7 breast.

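A five-concentration, 48-hour dose response in 96-well plates underlies each endpoint, interpolated linearly between surrounding concentrations. At the TGI there is no net growth.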 Bounds are passed on as bounds.

In the case of `CCN(CC)C(=S)SS(=O)(=O)c1ccccc1[N+](=O)[O-]`, the TGI was 33.2 µM in assay [1]; 54.9 µM in [2]; more than 59.1 µM in [3]; more than 44.8 µM in assay [4]; more than 65.8 µM in assay [5]; more than 54.8 µM in assay [6]. Also, the TGI was 50.4 µM in assay [7]; 22.2 µM in assay [8]; 53.9 µM in assay [9]; more than 93.8 µM in assay [10]; 99 µM in [11]; more than 100 µM in [12]. Further, the TGI in assay [13] is more than 56.9 µM; in assay [14], 40.9 µM; in [15], 24.8 µM; in assay [16] it was more than 100 µM; in assay [17], more than 92.8 µM; in assay [18], more than 100 µM. Also, in assay [19], the TGI came out at 31.2 µM.

Take `O=C(c1ccccc1)c1c(CC(O)c2ccccc2)n(C(=O)c2ccccc2)c2ccccc12` (stereo not drawn): the TGI in assay [1] was more than 100 µM; in [2] it was more than 100 µM; in assay [3], more than 100 µM; in assay [4], more than 100 µM; in assay [5], more than 100 µM; in [6] it was 98.9 µM. Also, the TGI in assay [7] is more than 100 µM; in assay [8] it was more than 100 µM; in [10], more than 100 µM; in assay [11] it was 69.5 µM; in [12] it was more than 100 µM; in assay [13], more than 100 µM. The TGI was more than 100 µM in assay [14], more than 100 µM in assay [15], more than 100 µM in [17] and 60.6 µM in assay [19].

With `BrCC(Br)(c1ccccc1)c1ccccc1-c1cc(-c2ccccc2)cc(-c2ccccc2)n1` (stereo not drawn), the TGI in [1] worked out at 13.8 µM; in assay [2], 23.4 µM; in assay [3], 12.3 µM; in [4], 2.33 µM; in [5] it was 23.2 µM; in assay [6], 11.4 µM. Also, the TGI in [7] was found to be 6.65 µM; in assay [8] it was 16.4 µM; in assay [20], 4.12 µM; in assay [9], 4.63 µM; in assay [10], 15.1 µM; in assay [11], 36 µM. Also, the TGI was 8.35 µM in assay [12]; 16.7 µM in [13]; 18.2 µM in assay [14]; 3.82 µM in assay [15]; 31.9 µM in assay [17]; 26.8 µM in [19].

Regarding `CC(=O)ON(C(C)=O)C1C(COC(c2ccccc2)(c2ccccc2)c2ccccc2)OC2OC3(CCCC3)OC21` (stereo not drawn), the TGI is more than 75.2 µM in assay [1]; more than 100 µM in assay [2]; more than 100 µM in assay [3]; more than 100 µM in assay [4]; more than 100 µM in assay [5]; 8.27 µM in assay [6]. Also, the TGI in assay [7], in assay [8], in [10], in [11], in [12] and in assay [13] was more than 100 µM each time. For the same compound, the TGI was 9.83 µM in [14]; more than 100 µM in assay [15]; more than 100 µM in assay [16]; more than 100 µM in assay [17]; more than 100 µM in assay [19].

Consider `O=C(Nc1nc(C23CC4CC(CC(C4)C2)C3)cs1)c1cc2c(ccc3ccccc32)oc1=O`, for which the TGI in assay [1], in assay [2], in [3], in [4], in assay [5] and in assay [6] was more than 100 µM throughout. Further, the TGI in [7], in [8], in assay [20], in assay [9], in [10] and in [11] was more than 100 µM in each case. In addition, the TGI in assay [12], in [13], in assay [14], in assay [15], in assay [17] and in [19] was more than 100 µM in each case.

For the compound `CC1=NN(C(=O)c2ccc(Cl)cc2)C(=O)/C1=C/c1ccco1`, the TGI in assay [1], in assay [2], in assay [3], in assay [4], in assay [5] and in assay [6] was more than 100 µM each time. In addition, the TGI in assay [7], in assay [8], in [11], in assay [12], in assay [13] and in assay [14] was more than 100 µM each time. The TGI in [15], in [16], in [17] and in assay [19] was more than 100 µM in each case.

Regarding `O=C1/C(=C/c2cccs2)NC(=S)N1CN1CCCC(CO)C1` (stereo not drawn), the TGI in assay [1], in assay [3], in [5], in [6], in [7] and in [8] was more than 100 µM each time. The TGI in assay [20], in assay [9], in [10], in [11], in assay [12] and in assay [13] was more than 100 µM each time. Besides, the TGI in [14], in [15], in assay [16], in [17] and in assay [19] was more than 100 µM in each case.

For the compound `O=C(O)CC1CC=C[C@H]2c3cc4c(cc3C(=O)NC12)OCO4` (stereo partly drawn), the TGI in [1], in [3], in assay [4], in assay [5], in [8] and in [10] was more than 75 µM throughout. The TGI in [11], in assay [13], in [14], in assay [16], in assay [17] and in [19] was more than 75 µM throughout.

Consider `O=C1C2ON3c4ccccc4C(=O)C3(c3ccccc3)C2C(=O)N1c1ccccc1` (stereo not drawn), for which the TGI in assay [1], in [3], in [4], in assay [5], in assay [6] and in assay [7] was more than 100 µM each time. In addition, the TGI in [8], in assay [10], in assay [11], in assay [13], in assay [14] and in assay [15] was more than 100 µM each time. Moreover, the TGI in [16], in assay [17] and in assay [19] was more than 100 µM each time.

Take `CN(C)CCCNC(=O)c1cc(NC(=O)c2cc(NC(=O)[C@@H]3C[C@H]3C(=O)Nc3cc(C(=O)Nc4cc(C(=O)NCCCN(C)C)n(C)c4)n(C)c3)cn2C)cn1C`: the TGI in assay [1], in assay [2], in [3], in assay [4], in assay [5] and in assay [6] was more than 100 µM in each case. The TGI in [7], in assay [8], in assay [20], in assay [9], in [10] and in assay [11] was more than 100 µM in each case. Besides, the TGI in assay [12], in assay [13], in assay [14], in assay [15] and in assay [17] was more than 100 µM in each case.

Regarding `CN(C)c1ccc(C2ON=C(c3ccccc3)N2C23CC4CC(CC(C4)C2)C3)cc1` (stereo not drawn), the TGI in assay [1], in assay [2], in assay [3], in [4], in assay [5] and in [6] was more than 10 µM in each case. The TGI in [7], in assay [8], in assay [9], in assay [10], in [11] and in [12] was more than 10 µM throughout. For the same compound, the TGI in assay [13], in [14], in [15], in assay [16], in [17] and in [18] was more than 10 µM in each case.

With `C=C1CC(COc2ccc3c(C)cc(=O)oc3c2)(c2ccccc2)OC1=O` (stereo not drawn), the TGI in assay [1] turned out to be 2.79 µM; in assay [2] it was 3.55 µM; in assay [3], 2.73 µM; in [5], 31 µM; in assay [6] it was 1.56 µM; in [7] it was 2.96 µM. Besides, the TGI in assay [8] is 1.9 µM; in assay [20], 2.71 µM; in [9] it was 8.03 µM; in assay [10], 15.7 µM; in assay [11], 5.53 µM; in assay [12], 24.5 µM. For the same compound, the TGI in [13] was found to be 5.57 µM; in assay [14], 1.62 µM; in assay [15] it was 5.49 µM; in [16] it was 14.9 µM; in assay [17] it was 29 µM; in assay [19] it was 14.5 µM.

As to `O=C(O)CCC(NC(=O)c1ccc(CNc2nc3ccccc3nc2C(=O)O)cc1)C(=O)O` (stereo not drawn), the TGI in assay [1], in assay [3], in assay [5], in assay [7], in assay [8] and in assay [20] was more than 100 µM in each case. For the same compound, the TGI in [9], in [10], in [11], in [12], in assay [13] and in assay [14] was more than 100 µM in each case. The TGI in assay [15], in assay [16], in [17] and in [19] was more than 100 µM each time.

For the compound `CCOC(=O)c1[nH]c2nc(SC)nc(Nc3ccccc3Cl)c2c1N`, the TGI was 46 µM in [1]; more than 100 µM in assay [2]; more than 100 µM in [3]; 41.3 µM in assay [5]; 47.1 µM in [7]; 67 µM in [8]. The TGI in assay [9] was more than 100 µM; in assay [10], 70.2 µM; in assay [11], 60.5 µM; in assay [12], more than 100 µM; in [13] it was 36.5 µM; in assay [14], 43.5 µM. Also, the TGI is 32.7 µM in assay [15]; 56.7 µM in assay [16]; 44.5 µM in [17]; 33.9 µM in [18]; 42.7 µM in assay [19].

For the compound `CC(=O)Oc1c2oc3cc(O)c(O)cc3c2c(OC(C)=O)c2oc3cc(O)c(O)cc3c12`, the TGI in assay [1] was more than 100 µM; in [2], 97.2 µM; in assay [3] it was 38.2 µM; in assay [4], 13 µM; in assay [5], 35.9 µM; in assay [7] it was 70.9 µM. For the same compound, the TGI in assay [8] was more than 100 µM; in assay [9] it was 3.81 µM; in assay [10] it was 39.2 µM; in [11], 7.38 µM; in assay [12], 56.3 µM; in [13], 50.2 µM. The TGI in assay [15] is 38.3 µM; in assay [16], 59.4 µM; in assay [17], 94.2 µM; in assay [19], 42 µM.

For the compound `O=C1CN(c2ccc(Cl)cc2)C(=O)CN1NCNN1CC(=O)N(c2ccc(Cl)cc2)CC1=O`, the TGI in assay [1], in assay [2], in assay [3], in assay [4], in assay [5] and in [6] was more than 100 µM each time. Also, the TGI in assay [7], in [8], in [20], in assay [9], in assay [11] and in [12] was more than 100 µM in each case. Also, the TGI in assay [13], in assay [14], in [15], in assay [16], in assay [17] and in assay [19] was more than 100 µM each time.
